Where a name gives a salt, the structure may show the parent alone.
Key:
[1] = system: Meth-treated mice (C57BL/6); assay: Meth-induced visual discrimination learning impairment in C57BL/6 mice (wild type); format: in vivo; conditions: for Meth-induced (1.0 mg/kg) visual discrimination impairment: meth-treated C57BL/6 mice
MK-801-treated mice [2] = assay: Social behavior test in MK-801-treated mice; format: in vivo
Description: Before conducting the experiment, test mice were kept in breeding cages one by one for 2 days. On the third day, mice that had been normally group-reared in another breeding cage were placed as invading mice into the cages of the test mice, and social behaviors of the test mice, such as tracking and sniffing, were measured for 5 minutes (Ibi et al., 2010).

MK-801-treated mice [3] = assay: Visual discrimination test in MK-801-treated mice
C57BL/6 mice = assay: Spontaneous locomotor activity; format: in vivo
Description: (§1) Mice were placed one by one in measurement cages (25 cm×30 cm×18 cm). Immediately after the placement, spontaneous locomotor activity of mice was measured using a measurement device equipped with infrared light (Brain Science Idea, Osaka, Japan) (Ibi et al., 2010).

[4] = system: dopaminergic neurons induced from iPS cells of patients with ARHGAP10 mutation; assay: Neurite length of iPS cell-derived dopaminergic neurons (IncuCyte NeuroTrack); format: cell-based, human; conditions: 72 hours after addition of inhibitor
Description: Dopaminergic neurons were induced from iPS cells of healthy subjects and patients with ARGHAP10 mutation. The induction method was performed according to a method already published (Transl Psychiatry. 2018 Jul. 19; 8(1): 129; and patent application PCT/JP2018/015304). To give an overview, iPS cells were cultured in an iPS cell medium supplemented with SB431542 (3 μM), CHIR99021 (3 μM), and dorsomorphin (3 μM) for 7 days (day 0 to day 7). The cultured cells were then dispersed with TrypLE™ select (Thermo Fisher Scientific Inc.) and passed through a cell strainer. […]
Dopaminergic progenitor cells were seeded onto a culture dish coated with poly-L-ornithine/laminin/fibronectin (poly-L-ornithine, laminin, and fibronectin), and an Rho kinase inhibitor was added simultaneously. […] The length of neurites after 72 hours was automatically measured with IncuCyte NeuroTrack (registered trademark).
Dopaminergic neurons were induced from iPS cells derived from healthy subjects and patients with ARHGAP10 mutation. […] The length of neurites was automatically detected and measured with IncuCyte (registered trademark) NeuroTrack (produced by Essen Bioscience).
The length of neurites (mm) per mm^2 was calculated for each field of view, and analysis was performed for 18 fields of view in each group. […]

MK-801-treated mice [5] = assay: MK-801-induced hyperactivity (hypermobility); format: in vivo; conditions: MK-801 0.3 mg/kg
Description: as §1
After 5 minutes, MK-801 (0.3 mg/kg) was intraperitoneally administered. The amount of locomotor activity started to be measured immediately after the administration (FIG. 6, panel A).

ARHGAP10 mutant mice = assay: Meth-induced visual discrimination learning impairment in ARHGAP10 mutant mice; format: in vivo; conditions: patient-type ARHGAP10 mutant mice
[6] = fasudil 20 mg/kg i.p., listed as Fasudil, monohydrochloride hemihydrate
[7] = fasudil 20 mg/kg i.p., monohydrochloride hemihydrate

In the case of Methamphetamine hydrochloride, the “correct response rate in the visual discrimination learning test” value ([1]; meth 1.0 mg/kg, C57BL/6 mice, saline-treated about 90%) is reported as “about 70%”.

For C[C@]12N[C@H](Cc3ccccc31)c1ccccc12 [MK-801, (+)-MK-801 maleate], the “time of social behavior” value (MK-801-treated mice [2]; MK-801 0.1 mg/kg i.p., compared with control mice) was “significantly reduced” and the “correct response rate in the visual discrimination learning test” value (MK-801-treated mice [3]; MK-801 0.1 mg/kg i.p., C57BL/6 mice, saline-treated 90%) was “about 70%”.

For O=S(=O)(c1cccc2cnccc12)N1CCCNCC1 [fasudil, hexahydro-1-(5-isoquinolinesulfonyl)-1H-1,4-diazepine monohydrochloride hemihydrate], the “MK-801-induced social behavior disorder” value (MK-801-treated mice [2]; fasudil 5 mg/kg i.p., MK-801 0.1 mg/kg) was “±”, the “MK-801-induced social behavior disorder” value (MK-801-treated mice [2]; fasudil 10 mg/kg i.p., MK-801 0.1 mg/kg, listed as Fasudil, monohydrochloride hemihydrate) was “Improved” and the “MK-801-induced social behavior disorder” value (MK-801-treated mice [2]; fasudil 10 mg/kg i.p., MK-801 0.1 mg/kg, monohydrochloride hemihydrate) was “returned to the same level as the social behavior in control mice”. The “MK-801-induced social behavior disorder” value (MK-801-treated mice [2]; fasudil 20 mg/kg i.p.) was “±”, the Spontaneous locomotor activity (C57BL/6 mice; fasudil 20 mg/kg i.p., Table 1) was “±” and the Spontaneous locomotor activity (C57BL/6 mice; fasudil 20 mg/kg i.p., versus saline-treated mice) was “same level of spontaneous locomotor activity as the saline-treated mice”. The Spontaneous locomotor activity (C57BL/6 mice; fasudil 30 mg/kg i.p., versus saline-treated mice, listed as Fasudil, monohydrochloride hemihydrate) was “Decreased”, the Spontaneous locomotor activity (C57BL/6 mice; fasudil 30 mg/kg i.p., versus saline-treated mice, monohydrochloride hemihydrate) was “significant decrease” and the length of neurites [4] was “improving effects”. For the same compound, the “Meth-induced (1.0 mg/kg) visual discrimination impairment” value ([1]; fasudil 3 mg/kg i.p.) was “Improvement”, the “Meth-induced (1.0 mg/kg) visual discrimination impairment” value ([1]; fasudil 10 mg/kg i.p., listed as Fasudil, monohydrochloride hemihydrate) was “Improved” and the “Meth-induced (1.0 mg/kg) visual discrimination impairment” value ([1]; fasudil 10 mg/kg i.p., monohydrochloride hemihydrate) was “improved”. For the same compound, the “Meth-induced (1.0 mg/kg) visual discrimination impairment” value [1, 6] was “Improved”, the “Meth-induced (1.0 mg/kg) visual discrimination impairment” value [1, 7] was “improved” and the MK-801-induced hypermobility (MK-801-treated mice [5]; fasudil 10 mg/kg i.p.) was “±”. For the same compound, the MK-801-induced hypermobility (MK-801-treated mice [5]; [6]) was “Improved”, the MK-801-induced hypermobility (MK-801-treated mice [5]; [7]) was “significantly inhibited” and the “Meth-induced (0.3 mg/kg) visual discrimination impairment” value (ARHGAP10 mutant mice; fasudil 3 mg/kg i.p.) was “Improved”. The “Meth-induced (0.3 mg/kg) visual discrimination impairment” value (ARHGAP10 mutant mice; fasudil 10 mg/kg i.p.) was “Improved”, the “Meth-induced (0.3 mg/kg) visual discrimination impairment” value (ARHGAP10 mutant mice; [7]) was “significantly improved” and the “MK-801-induced (1.0 mg/kg) visual discrimination disorder” value (MK-801-treated mice [3]; fasudil 3 mg/kg i.p.) was “±”. For the same compound, the “MK-801-induced (1.0 mg/kg) visual discrimination disorder” value (MK-801-treated mice [3]; [6]) was “Improved”, the “MK-801-induced (1.0 mg/kg) visual discrimination disorder” value (MK-801-treated mice [3]; [7]) was “returned to the control level” and the “test completion rate, latency to correct response, latency to obtain the reward” value (MK-801-treated mice [3]; fasudil 3, 10 or 20 mg/kg i.p., MK-801-treated mice) was “none of the groups showed significant changes”.

— patent US11478482B2 (NATIONAL UNIVERSITY CORPORATION TOKAI NATIONAL HIGHER …, priority 2018, dated 2022)
